Laboratory results from US20220160734A1, “TREATMENT OF FIBROIDS WITH VITAMIN D AND AN AGENT SUCH AS EPIGALLOCATECHIN GALLATE (EGCG)” (LO.LI. PHARMA S.R.L., priority 2019, published 2022).

Columns and labels:
[1] = test system: collagen release in cultured fibroblasts; assay: Collagen release in TGF-β1-stimulated fibroblasts, western blot; type: cell-based, human; settings: Phase I, 18 days culture, 24 h TGF-β1 10 ng/ml, then 24 h treatment, vitamin D3 0.005 μg/ml, EGCG 0.03 mg/ml, FIG. 2
Excerpt: (§1) Anti-fibrotic properties of epigallocatechin gallate (EGCG) and vitamin D3 (alone or in combination) have been preliminary tested in human normal fibroblasts in 2D cultures. Human normal fibroblasts used in this experiment are Primary cell cultures. To discard any effect on fibroblast viability, proliferation and apoptosis were also investigated. Fibroblasts culture: DMEM, 10% FBS, 1% L-Glu, 1% Pen/strep for 18 days; Fibroblasts were allowed to grow in the above fibroblast culture for 18 days until reaching 50% confluence. Then, the fibrotic process was fostered by adding 10 ng/ml TGF-β1 (Peprotech, cat no. #100-21-10UG). 24 hours after addition of TGF-β1, fibroblasts were thoroughly washed with PBS, fresh fibroblast culture medium and the below formulas were added. Fibroblasts were then allowed to grow for an additional 24 hours.
Vitamin D3 (cholecalciferol, CAS-No. 67-97-0): 0.005 μg/ml in DMSO. Vitamin D3 was dissolved in DMSO and after that further dilutions were made in PBS. Essentially, the cells receive the same “dose” of DMSO, this allows a clean comparison of the test. In this case, DMSO 1:10000 was used;
EGCG (GREEN TEA DRY EXTRACT 95% POLYPHENOLS; CAS-No. 84650-60-2): 0.03 mg/ml in H2O;
combined treatment: EGCG 0.03 mg/ml+vitamin D3 0.005 μg/ml;
control: vehicle only (DMSO);
(§2) Fibronectin and collagen release were both measured in western blot for assessing the anti-fibrotic effect. […]
(§3) Fibronectin and collagen release from fibroblasts were analyzed at 24 hours after addition of EGCG or vitamin D3 in previously stimulated fibroblast, as described above. […]
Data are reported in FIGS. 3 A-B and 4 A-B and expressed as fold-decrease of OD-Units in respect to the control value, which was obtained for fibroblasts after 24 hours of stimulation with TGF-β1 (e.g. a decrease of 50% between two measurements would be referred to a “half-fold change”). Fold change is a measure describing how much a quantity changes between an original and a subsequent measurement. It is defined as the ratio between the two quantities; for quantities A and B, then the fold change of B with respect to A is B/A.

[2] = test system: uterine fibroids; settings: women with uterine fibroids after treatment with EGCG; cited from earlier work
[3] = test system: human uterine fibroid cells; settings: in vitro; cited from earlier work
[4] = test system: human normal fibroblasts; assay: Fibroblast proliferation, viability and morphology; settings: Phase I; vitamin D3 0.005 μg/ml, EGCG 0.03 mg/ml; data not shown
Excerpt: as §1

[5] = test system: fibronectin release in cultured fibroblasts; assay: Fibronectin release in TGF-β1-stimulated fibroblasts, western blot; type: cell-based, human; settings: Phase I; 18 days culture, 24 h TGF-β1 10 ng/ml, then 24 h treatment; vitamin D3 0.005 μg/ml, EGCG 0.03 mg/ml; FIG. 1
Excerpt: as §1, with “24 hours after addition of TGF-β1, fibroblasts were thoroughly washed with PBS, fresh fibroblast culture medium and the below formulas were added. Fibroblasts were then allowed to grow for an additional 24 hours.” left out
as §2, §3
Data are reported in FIGS. 3 A-B and 4 A-B and expressed as fold-decrease of OD-Units in respect to the control value, which was obtained for fibroblasts after 24 hours of stimulation with TGF-β1 (e.g. a decrease of 50% between two measurements would be referred to a “half-fold change”). Fold change is a measure describing how much a quantity changes between an original and a subsequent measurement. […]

[6] = test system: uterine fibroid tumors; settings: mice; cited from earlier work
[7] = test system: uterine fibroids; settings: animal models; cited from earlier work

In the case of `O=C(O[C@@H]1Cc2c(O)cc(O)cc2O[C@@H]1c1cc(O)c(O)c(O)c1)c1cc(O)c(O)c(O)c1` [EGCG, epigallocatechin gallate], the “collagen release (production)” value [1] is listed as “significantly reduces”, the “reduction in the total fibroid volume” value [2] is listed as 32.6% and the “apoptosis in human uterine fibroid cells” value [3] is listed as “induces apoptosis”. The “uterine fibroid cell proliferation” value [3] was “inhibits proliferation”, the fibroblasts proliferation rate [4] was “does not significantly modify” and the fibroblasts viability [4] was “does not significantly modify”. The “fibronectin release (production)” value [5] was “significantly reduces” and the “volume of uterine fibroid tumors” value [6] was “reduces the volume”.
For `C=C1/C(=C\C=C2/CCC[C@]3(C)[C@@H]([C@H](C)CCCC(C)(C)O)CC[C@@H]23)C[C@@H](O)C[C@@H]1O` [1,25-dihydroxyvitamin D], the “uterine fibroid cell proliferation” value [3] is listed as “inhibits” and the “size of uterine fibroids / uterine fibroid tumor growth” value [7] is listed as “decreases the size”.
In the case of `C=C1CC[C@H](O)C/C1=C/C=C1\CCC[C@]2(C)[C@@H]([C@H](C)CCCC(C)C)CC[C@@H]12` [Vitamin D3, cholecalciferol], the “collagen release (production)” value [1] is given as “significantly reducing”, the “collagen release (production)” value ([1]; listed as Vitamin D) is given as “reduces” and the “uterine fibroid cell proliferation” value [3] is given as “reduces”. For the same compound, the fibroblasts proliferation rate [4] was “does not significantly modify”, the fibroblasts viability [4] was “does not significantly modify” and the “size of uterine fibroids / uterine fibroid tumor growth” value [7] was “reduces”. For the same compound, the “fibronectin release (production)” value [5] was “slightly increases”.
